Measurements taken from article PMC3648604 (Antiviral research, 2013).

Target: NA activity of the H5N1 influenza viruses (Influenza A virus (H5N1), UniProt Q6DPL2)
Assay type: biochemical, human and avian HP H5N1 influenza viruses

Chain of NA activity of the H5N1 influenza viruses (Q6DPL2 whole entry, looked up): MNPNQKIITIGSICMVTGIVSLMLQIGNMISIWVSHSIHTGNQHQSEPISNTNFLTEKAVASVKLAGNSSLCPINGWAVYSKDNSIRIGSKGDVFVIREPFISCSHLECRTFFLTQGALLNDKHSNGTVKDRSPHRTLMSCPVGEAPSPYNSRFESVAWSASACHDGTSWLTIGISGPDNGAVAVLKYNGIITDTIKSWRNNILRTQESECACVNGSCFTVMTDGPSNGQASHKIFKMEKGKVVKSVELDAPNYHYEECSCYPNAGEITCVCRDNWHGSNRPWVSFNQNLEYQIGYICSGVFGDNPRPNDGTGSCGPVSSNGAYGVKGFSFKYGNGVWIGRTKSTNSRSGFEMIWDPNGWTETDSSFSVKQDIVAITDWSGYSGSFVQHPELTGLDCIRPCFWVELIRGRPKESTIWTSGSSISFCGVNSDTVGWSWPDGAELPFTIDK

CC(=O)N[C@H]1[C@H]([C@H](O)[C@H](O)CO)OC(C(=O)O)=C[C@@H]1N=C(N)N [Zanamivir, 4-guanidino-Neu5Ac2en]
susceptibility in phenotypic fluorescence-based assay: fully susceptible
